Laboratory results reported in patent publication US6486175B1, “Diester prodrugs of a decahydroisoquinoline-3-carboxylic acid” (Eli Lilly and Company, priority 1999, dated 2002).

Experiments:
[1] = Bioavailability in Cynomolgus Monkeys: plasma pharmacokinetics of Compound A after i.v./p.o. dosing; conditions: cynomolgus monkey, in vivo
Description: (§1) The following in vivo data, in rats, dogs and monkeys, exemplify the surprising improvement in bioavailability of the diester prodrugs of the present invention over the diacid of 3S,4aR,6S, 8aR-6-(((4-carboxy)phenyl)methyl)1,2,3,4,4a,5,6,7,8,8a-decahydroisoquinoline-3-carboxylic acid. Percent bioavailability is determined using the following equation: [formula]
(§2) wherein AUC represents the area under the curve, p.o. represents oral dose, and i.v. represents intravenous dose.
Four female monkeys were administered an oral and iv dose of compound A (oral: 10 mg/kg; iv: 1 mg/kg) to determine oral bioavailability. The same animals were also administered an oral 10 mg/kg dose of compound B. The plasma concentrations of compound A were determined by LC/MS/MS.
Four female cynomolgus monkeys were given a single iv dose of compound A (1 mg/kg) on day 0, a single oral dose of compound A (10 mg/kg) on day 6 and a single oral dose of compound B (10 mg/kg) on day 10. Blood was collected at 0.5, 1, 2, 3, 4, 5, 6 and 8 hours post dose for oral dosing and 0.167, 0.33, 0.67, 1, 1.5, 2, 3 and 4 hours post dose for iv dosing. Dosing solutions for compound A and compound B were prepared in water. […] Measurable levels of drug (>10 ng/ml) were still present 8 hours post dose. […] Bioavailability was estimated at 34.8%.

[2] = Bioavailability in Dogs: plasma pharmacokinetics of Compound A after i.v./p.o. dosing; assay type: in vivo; conditions: both sexes, dog, iv, Beagle dogs, 10 mg/kg
Description: as §1, §2
Beagle dogs (2 male and 1 female) were administered an oral and iv dose of 3S,4aR,6S,8aR-6-(((4-carboxy)phenyl)methyl)-1,2,3,4,4a,5,6,7,8,8a-decahydroisoquinoline-3-carboxylic acid (10 mg/kg) to determine oral bioavailability. The same three dogs were also administered an oral 10 mg/kg dose of compound 3S,4aR,6S,8aR-6-(((4-carboxy)phenyl)methyl)-1,2,3,4,4a,5,6,7,8,8a-decahydroisoquinoline-3-carboxylic acid, diethyl ester, to determine whether the prodrug would increase bioavailability. The plasma concentrations of 3S,4aR,6S,8aR-6-(((4-carboxy)phenyl)methyl)-1,2,3,4,4a,5,6,7,8,8a-decahydroisoquinoline-3-carboxylic acid were determined by LC/MS/MS. […]

[3] = Pharmacokinetic parameters of Compound A in Fischer Rats after a 10 mg/kg dose; assay type: in vivo; conditions: rat, iv, plasma Compound A
Description: as §1, §2
Tables 1 and 2 below summarize the pharmacokinetic parameters found for Compounds A and B following 10 mg/kg administration (i.v. or p.o.) to Beagle Dogs and Fischer Rats respectively.

In the case of `O=C(O)c1ccc(C[C@H]2CC[C@H]3CN[C@H](C(=O)O)C[C@H]3C2)cc1` [Compound A, 3S,4aR,6S,8aR-6-(((4-carboxy)phenyl)methyl)-1,2,3,4,4a,5,6,7,8,8a-decahydroisoquinoline-3-carboxylic acid], the “levels of drug in plasma at 0.5 hr” value ([1]; po, 10 mg/kg) was “measurable levels of drug were detected”, the AUC ([1]; female, iv, 1 mg/kg) was 1190 ng·h/mL and the Cmax ([1]; female, iv, 1 mg/kg) was 1920 ng/mL. For the same molecule, the clearance ([1]; female, iv, 1 mg/kg) was 14 mL/min/kg, the half-life ([1]; female, iv, 1 mg/kg) was 42 min and the “% Bioavail” value ([1]; female, po, 10 mg/kg) was 11.1%. For the same molecule, the AUC ([1]; female, po, 10 mg/kg) was 1,320 ng hr/mL, the Cmax ([1]; female, po, 10 mg/kg) was 127 ng/mL and the Improvement ([1]; female, po, 10 mg/kg) was 1 X. The Tmax ([1]; female, po, 10 mg/kg) was 60 min, the concentration at 8 h ([1]; female, po, 10 mg/kg) was greater than 10 ng/mL and the AUC [2] was 41400 ng·h/mL. It also gave a Cmax [2] of 28800 ng/mL, an AUC [3] of 2410 ng·h/mL and a Cmax [3] of 6280 ng/mL.

For `CCOC(=O)c1ccc(C[C@H]2CC[C@H]3CN[C@H](C(=O)OCC)C[C@H]3C2)cc1.Cl` [Compound B, 3S,4aR,6S, 8aR-6-(((4-carboxy)phenyl)methyl)-1,2,3,4,4a,5,6,7,8,8a-decahydroisoquinoline-3-carboxylic acid HCl, diethyl ester], the “plasma levels of compound B (unchanged prodrug)” value ([1]; po, 10 mg/kg) was “No detectable plasma levels”, the “% Bioavail” value ([1]; female, po, 10 mg/kg) was 34.8% and the AUC ([1]; female, po, 10 mg/kg) was 4,149 ng hr/mL. The Improvement ([1]; female, po, 10 mg/kg) was 3.1X and the “increase in the bioavailability” value ([1]; female, po, 10 mg/kg) was 3.1 fold.
